The target in one series is GLP-1R (Homo sapiens, UniProt P43220). Put plainly: GLP-1R activation: cAMP increase in CHO cells stably expressing GLP-1R. It is filed as cell-based. To be noted: read-out: EC50.
The nature of series [1]: Microsomal stability, human liver microsomes (predicted hepatic clearance). To be noted: predicted from in vitro microsomal stability data.
The mark [2] stands for this setting: cAMP increase, CHO cells stably expressing GLP-1R, 10 point dose response, 30 minutes incubation.

Read-outs that look alike come from different tables or passages of the source.

Here are results for 27 compounds from patent publication US11702404B2, “GLP-1R modulating compounds” (priority 2019, dated 2023).

Sequence of GLP-1R (P43220 24-463): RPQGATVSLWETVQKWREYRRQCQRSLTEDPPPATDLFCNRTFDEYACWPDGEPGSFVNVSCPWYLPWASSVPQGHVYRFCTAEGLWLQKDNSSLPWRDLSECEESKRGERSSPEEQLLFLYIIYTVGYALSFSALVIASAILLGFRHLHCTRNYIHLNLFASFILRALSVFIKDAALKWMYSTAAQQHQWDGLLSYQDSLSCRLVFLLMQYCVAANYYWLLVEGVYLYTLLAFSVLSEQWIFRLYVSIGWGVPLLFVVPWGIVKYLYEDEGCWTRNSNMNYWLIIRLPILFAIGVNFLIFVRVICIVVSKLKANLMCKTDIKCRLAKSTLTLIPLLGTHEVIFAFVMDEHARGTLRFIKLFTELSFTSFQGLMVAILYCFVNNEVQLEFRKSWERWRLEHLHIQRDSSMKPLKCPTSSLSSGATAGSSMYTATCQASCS

Regarding `N#Cc1ccc(COc2cccc(-c3cc(F)c(Cc4nc5ccc(C(=O)O)cc5n4[C@H]4CCC[C@@]45CCCO5)cc3F)n2)c(F)c1` [Example 710], the EC50 at GLP-1R (setting [2]) came to 1.45 nM. Further, in series [1], the “Predicted Hepatic Clearance (Pred. Cl.)” value was 11 mL/min/kg.
Take `O=C(O)c1ccc2nc(Cc3cc(F)c(-c4cccc(OCc5cnc(Cl)cc5F)n4)cc3F)n(C[C@@H]3CCO3)c2c1` [Example 851]: the 50% effective concentration (EC50) at GLP-1R (setting [2]) came out at 0.25 nM. The “Predicted Hepatic Clearance (Pred. Cl.)” value in series [1] is 2.5 mL/min/kg.
For `COCCn1c(Cn2c(C)cc(-c3cccc(OCc4ccc(C#N)cc4F)n3)cc2=O)nc2ccc(C(=O)O)cc21` [Example 437, 2-((6-((4-cyano-2-fluorobenzyl)oxy)-6′-methyl-2′-oxo-[2,4′-bipyridin]-1′(2′H)-yl)methyl)-1-(2-methoxyethyl)-1H-benzo[d]imidazole-6-carboxylic acid] the same measures were 69.8 nM and 2.67 mL/min/kg.
As for `COCCn1c(Cc2cc(F)c(-c3cccc(OCc4csc(Cl)c4)n3)cc2F)nc2ccc(C(=O)O)cc21` [Example 692], the EC50 at GLP-1R (setting [2]) came out at 12.3 nM. Moreover, the “Predicted Hepatic Clearance (Pred. Cl.)” value in series [1] was 1.83 mL/min/kg.
Taken in the same sequence, the figures for `N#CCC1(Cn2c(Cc3ccc(-c4ccnc(OCc5ccc(C#N)cc5F)n4)cc3F)nc3c(F)cc(C(=O)O)cc32)CC1` [Example 168, 2-(4-(2-((4-cyano-2-fluorobenzyl)oxy)pyrimidin-4-yl)-2-fluorobenzyl)-1-((1-(cyanomethyl)cyclopropyl)methyl)-4-fluoro-1H-benzo[d]imidazole-6-carboxylic acid] were 1.06 nM and less than 1.83 mL/min/kg.
Consider `N#Cc1ccc(COc2cccc(-c3cc(F)c(Cc4nc5ccc(C(=O)O)cc5n4CCNc4ccccc4)cc3F)n2)c(F)c1` [Example 895], for which, at GLP-1R, the EC50 was 79.9 nM. Further, in series [1], the “Predicted Hepatic Clearance (Pred. Cl.)” value was 8 mL/min/kg.
Take `N#CCC1(Cn2c(Cc3cc(F)c(-c4ccc(F)c(OCc5ccc(C#N)cc5F)n4)cc3F)nc3ccc(C(=O)O)cc32)CC1` [Example 153, 2-(4-(6-((4-cyano-2-fluorobenzyl)oxy)-5-fluoropyridin-2-yl)-2,5-difluorobenzyl)-1-((1-(cyanomethyl)cyclopropyl)methyl)-1H-benzo[d]imidazole-6-carboxylic acid]: the EC50 on GLP-1R (setting [2]) is 0.11 nM. For the same compound, the “Predicted Hepatic Clearance (Pred. Cl.)” value in series [1] was 5.17 mL/min/kg.
For `COCCn1c(Cc2cc(F)c(-c3ccnc(OCc4ccc(C#N)cc4F)n3)cc2F)nc2ccc(C(=O)O)cc21` [Example 349, 2-(4-(2-((4-cyano-2-fluorobenzyl)oxy)pyrimidin-4-yl)-2,5-difluorobenzyl)-1-(2-methoxyethyl)-1H-benzo[d]imidazole-6-carboxylic acid] the same measures were 3.05 nM and less than 1.83 mL/min/kg.
Taken in the same sequence, the figures for `COC1(Cn2c(Cc3cc(F)c(-c4cccc(OCc5ccc(C#N)cc5F)n4)cc3F)nc3ccc(C(=O)O)cc32)CC1` [Example 746] were 0.87 nM and 5 mL/min/kg.
Consider `CC(C)(C)C(=O)N1CC[C@@H]1Cn1c(Cc2ccc(-c3cccc(OCc4ccc(C#N)cc4F)n3)cc2F)nc2ccc(C(=O)O)cc21` [Example 887, 2-[[4-[6-[(4-cyano-2-fluoro-phenyl)methoxy]-2-pyridyl]-2-fluoro-phenyl]methyl]-3-[[(2R)-1-(2,2-dimethylpropanoyl)azetidin-2-yl]methyl]benzimidazole-5-carboxylic acid], for which the EC50 at GLP-1R came out at 8310 nM. Further, in series [1], the “Predicted Hepatic Clearance (Pred. Cl.)” value was 8.83 mL/min/kg.
As to `COCCn1c(Cc2ccc(-c3cccc(OCc4cccc5c4OCCO5)n3)cc2F)nc2ccc(C(=O)O)cc21` [Example 348, 2-(4-(6-((2,3-dihydrobenzo[b][1,4]dioxin-5-yl)methoxy)pyridin-2-yl)-2-fluorobenzyl)-1-(2-methoxyethyl)-1H-benzo[d]imidazole-6-carboxylic acid], the EC50 at GLP-1R (setting [2]) worked out at 48.1 nM. Further, the “Predicted Hepatic Clearance (Pred. Cl.)” value in series [1] is 9.5 mL/min/kg.
With `COCCn1c(Cc2ccc(-c3ccnc(OCc4ccc(C#N)cc4F)n3)cc2F)nc2ccc(C(=O)O)cc21` [Example 83, 2-(4-(2-((4-cyano-2-fluorobenzyl)oxy)pyrimidin-4-yl)-2-fluorobenzyl)-1-(2-methoxyethyl)-1H-benzo[d]imidazole-6-carboxylic acid], the EC50 at GLP-1R (setting [2]) was determined as 29.3 nM. Moreover, the “Predicted Hepatic Clearance (Pred. Cl.)” value in series [1] was less than 1.83 mL/min/kg.
For `CC1(Cn2c(Cc3cc(F)c(-c4cccc(OCc5ccc(C#N)cc5F)n4)cc3F)nc3ccc(C(=O)O)cc32)COC1` [Example 581, 2-(4-(6-((4-cyano-2-fluorobenzyl)oxy)pyridin-2-yl)-2,5-difluorobenzyl)-1-((3-methyloxetan-3-yl)methyl)-1H-benzo[d]imidazole-6-carboxylic acid] the same measures were 0.4 nM and 6.33 mL/min/kg.
For `N#Cc1ccc(COc2cccc(-c3cc(F)c(Cc4nc5ccc(C(=O)O)cc5n4CC45CC(CO4)C5)cc3F)n2)c(F)c1` [Example 574] the same measures were 0.63 nM and 1.92 mL/min/kg.
Taken in the same sequence, the figures for `N#Cc1ccc(COc2nc(-c3ccc(Cc4nc5c(F)cc(C(=O)O)cc5n4C[C@@H]4CCO4)cc3F)ccc2F)c(F)c1` [Example 780] were 0.12 nM and 1.83 mL/min/kg.
For `COCCn1c(Cc2ccc(-c3cccc(OCc4ccc(C#N)cc4F)n3)cc2F)nc2cccc(C(=O)O)c21` [Example 201, 2-(4-(6-((4-cyano-2-fluorobenzyl)oxy)pyridin-2-yl)-2-fluorobenzyl)-1-(2-methoxyethyl)-1H-benzo[d]imidazole-7-carboxylic acid], the EC50 on GLP-1R (setting [2]) turned out to be 4420 nM. In addition, in series [1], the “Predicted Hepatic Clearance (Pred. Cl.)” value is 3 mL/min/kg.
For `CO[C@H](C)Cn1c(Cc2ccc(-c3cccc(OCc4ccc(C#N)cc4F)n3)cc2F)nc2ccc(C(=O)O)cc21` [Example 327, (R)-2-(4-(6-((4-cyano-2-fluorobenzyl)oxy)pyridin-2-yl)-2-fluorobenzyl)-1-(2-methoxypropyl)-1H-benzo[d]imidazole-6-carboxylic acid], the EC50 on GLP-1R (setting [2]) is 7.73 nM. Moreover, the “Predicted Hepatic Clearance (Pred. Cl.)” value in series [1] was 3 mL/min/kg.
For `COCCn1c(Cc2ccc(-c3cccc(OCc4ccc(C#N)cc4F)n3)cc2-c2cc[nH]n2)nc2ccc(C(=O)O)cc21` [Example 260, 2-(4-(6-((4-cyano-2-fluorobenzyl)oxy)pyridin-2-yl)-2-(1H-pyrazol-3-yl)benzyl)-1-(2-methoxyethyl)-1H-benzo[d]imidazole-6-carboxylic acid] the same measures were 113 nM and 10.8 mL/min/kg.
For `O=C(O)c1ccc2nc(Cc3ccc(-c4ccnc(OCc5ccc(Cl)cc5F)n4)c(F)c3)n(CC3(CF)CC3)c2n1` [Example 318, 2-(4-(2-((4-chloro-2-fluorobenzyl)oxy)pyrimidin-4-yl)-3-fluorobenzyl)-3-((1-(fluoromethyl)cyclopropyl)methyl)-3H-imidazo[4,5-b]pyridine-5-carboxylic acid] the same measures were 1.07 nM and less than 1.83 mL/min/kg.
For `COCCn1c(Cc2cc(F)c(-c3cccc(OCc4ccc(Cl)cc4F)n3)cc2F)nc2ccc(C(=O)O)cc21` [Example 563, 2-(4-(6-((4-chloro-2-fluorobenzyl)oxy)pyridin-2-yl)-2,5-difluorobenzyl)-1-(2-methoxyethyl)-1H-benzo[d]imidazole-6-carboxylic acid] the same measures were 1 nM and 3.67 mL/min/kg.
As to `COCCn1c(Cc2ccc(-c3cccc(OCc4ccccc4F)n3)cc2F)nc2ccc(C(=O)O)cc21` [Example 514, 2-(2-fluoro-4-(6-((2-fluorobenzyl)oxy)pyridin-2-yl)benzyl)-1-(2-methoxyethyl)-1H-benzo[d]imidazole-6-carboxylic acid], the EC50 on GLP-1R (setting [2]) was determined as 60.8 nM. For the same compound, in series [1], the “Predicted Hepatic Clearance (Pred. Cl.)” value is 15.2 mL/min/kg.
For `CCn1cnnc1Cn1c(Cc2cc(F)c(-c3cccc(OCc4ccc(C(F)F)cc4F)n3)cc2F)nc2ccc(C(=O)O)cc21` [Example 678] the same measures were 0.88 nM and 4.17 mL/min/kg.
For `COCCn1c(Cc2ccc(-c3cccc(OCn4ccc(C#N)cc4=O)n3)cc2F)nc2ccc(C(=O)O)cc21` [Example 513, 2-(4-(6-((4-cyano-2-oxopyridin-1(2H)-yl)methoxy)pyridin-2-yl)-2-fluorobenzyl)-1-(2-methoxyethyl)-1H-benzo[d]imidazole-6-carboxylic acid] the same measures were 55.1 nM and 5.17 mL/min/kg.
For `COc1cc(Cl)ccc1COc1cccc(-c2cc(F)c(Cc3nc4ccc(C(=O)O)cc4n3CC3(CC#N)CC3)cc2F)n1` [Example 443, 2-(4-(6-((4-chloro-2-methoxybenzyl)oxy)pyridin-2-yl)-2,5-difluorobenzyl)-1-((1-(cyanomethyl)cyclopropyl)methyl)-1H-benzo[d]imidazole-6-carboxylic acid] the same measures were 0.15 nM and 11 mL/min/kg.
For `COCCn1c(Cc2cnc(-c3cccc(OCc4ccc(C#N)cc4F)n3)nc2)nc2ccc(C(=O)O)cc21` [Example 44, 2-((2-(6-((4-cyano-2-fluorobenzyl)oxy)pyridin-2-yl)pyrimidin-5-yl)methyl)-1-(2-methoxyethyl)-1H-benzo[d]imidazole-6-carboxylic acid], the EC50 on GLP-1R (setting [2]) worked out at 212 nM. Further, the “Predicted Hepatic Clearance (Pred. Cl.)” value in series [1] is 3 mL/min/kg.
Take `CN1CCO[C@@H](Cn2c(Cc3cc(F)c(-c4cccc(OCc5ccc(C#N)cc5F)n4)cc3F)nc3ccc(C(=O)O)cc32)C1` [Example 651]: the half-maximal effective concentration (EC50) at GLP-1R (setting [2]) was determined as 2790 nM. The “Predicted Hepatic Clearance (Pred. Cl.)” value in series [1] is 3.33 mL/min/kg.
Turning to `N#Cc1ccc(COc2ccc(F)c(-c3cc(F)c(Cc4nc5c(F)cc(C(=O)O)cc5n4C[C@@H]4CCO4)cc3F)n2)c(F)c1` [Example 792], on GLP-1R (setting [2]), the EC50 came out at 0.04 nM. The “Predicted Hepatic Clearance (Pred. Cl.)” value in series [1] was 6.17 mL/min/kg.
